Measured values taken from paper PMC7415810, “A novel nucleolin-binding peptide for Cancer Theranostics” (Theranostics, 2020).

Assays:
[1] = test system: normal cells (MCF-10A, CCD-18Co); test: Flow cytometry binding of FITC-labeled peptide; type: cell-based, human; conditions: 1 × 10^5 cells, 2 h at 37 °C, serum-free medium
Protocol: (§1) Fluorescence-activated cell-sorting (FACS) analysis was used to check the binding of the FITC labeled peptides (FITC-peptide). The stock solution for the FITC-peptides (100 μM) was prepared by dissolving the peptide in PBS. MCF-10A, MCF-7, MDA-MB-231, CCD-18Co, HT-29, and HCT-116 cells were seeded in 6-well plates (10^5 cells/well) containing 3 ml of medium, and the plates were then incubated at 37 °C overnight. […] Thereafter, the medium was removed, and the cells were washed with cold PBS to remove any remaining peptide. Adequate trypsin/EDTA was added to each well, which was followed by a 3 ~ 5 min incubation at 37 °C. Trypsin/EDTA was immediately neutralized by adding medium, and the cell suspension was then transferred into centrifuge tubes. The cells were separated and washed twice with PBS. […] The prepared cells were analyzed on a FACScanto II (BD Biosciences, San Jose, CA, USA) flow cytometer, and the FACS data were analyzed using FlowJo (TreeStar, Ashland, OR, USA).
(§2) Next, to examine whether the MAP ligand can selectively bind to cancer cells, cancer cells treated with FITC-labeled AGM-330 (AGM-330-FITC) were compared with untreated cells. […] Then, the inherent fluorescence of peptide-treated cells were compared and measured based on changes in the mean fluorescence intensity (MFI) values compared to those of untreated cells (Figure 1D and E).

[2] = test system: cancer cells (MCF-7, MDA-MB-231, HT-29, HCT-116); test: Flow cytometry binding of FITC-labeled peptide; type: cell-based, human; conditions: 1 × 10^5 cells, 2 h at 37 °C, serum-free medium
Protocol: as §1, §2

[3] = test system: MDA-MB-231 cells; test: Time-dependent binding/internalization of AGM-330-FITC, confocal microscopy; type: cell-based, human; conditions: 5 μmol/l, 37 °C, 1, 3, 6 and 12 h, confocal fluorescence
Protocol: We evaluated the specificity of AGM-330 to NCL with cell binding assays against different cell lines using fluorescence microscopy. The experiment was performed using multiple cancer cell lines, MCF-7, MDA-MB-231, HT-29, and HCT-116, and normal cell lines, MCF-10A, and CCD-18Co. The binding specificity was determined by confocal imaging after 1 h of incubation of the cells with 5 μmol/l AGM-330-FITC. The cells were incubated with DAPI to counterstain the nuclei (blue fluorescence). […] To evaluate the ability of AGM-330 to undergo NCL-mediated endocytosis, MDA-MB-231 cells were incubated with AGM-330-FITC at 37 °C for different times (1, 3, 6 and 12 h). […] As mentioned in a previous study, N6L is essentially built on a lysine-rich helicoid template formed by a repeat of 6 tripeptide units. […] Therefore, the difference in the molecular structure between AGM-330 and N6L may be caused by different endocytosis mechanisms. […] However, except for membrane NCL, we could not confirm the protein associated with internalization among the proteins bound to AGM-330 (Figure 2D). Taken together, N6L, which binds to both membrane NCL and nucleophosmin, induce apoptosis after internalization into nucleolus of cancer cells.
Figure S6. Time-dependent in vitro binding assay of AGM-330-FITC toward cancer cells. MDA-MB-231 cells were incubated with 5 μmol/l AGM-330-FITC for 1, 3, 6 and 12 h at 37 °C. […]

[4] = In vivo stability test (plasma pharmacokinetics after single intravenous injection); conditions: mouse
Protocol: After 15 min of centrifugation at 5,000 rpm and 4 °C, the plasma was obtained and stored at -80 °C. Plasma peptide concentrations were quantified by ELISA, and pharmacokinetic profiles were analyzed using Phoenix WinNonlin 8.1 (Pharsight Corporation, Mountain View, CA, USA). The area under the plasma concentration-time curve (AUC), distribution half-time (T1/2), maximum plasma concentration (Cmax) and time required to reach maximum plasma concentration (Tmax) values were directly determined from the experimental data. […]
(§3) bated at 37 °C for 0, 3, 6, 9, and 24 h. The portion of serum-treated peptide remaining was determined by calcu-lating the height of the respective elution peak in analytical-HPLC and comparing it with control without incuba- […]
Plasma peptide concentrations were quantified by ELISA, and pharmacokinetic profiles were analyzed using Phoenix WinNonlin 8.1 (Pharsight Corporation, Mountain View, CA, USA). The data are presented as the means ± standard deviation.

[5] = In vitro stability test in human serum; conditions: 100 μM stock diluted 10-fold in 100% human serum, 37 °C, 0-24 h; analytical HPLC; triplicate
Protocol: Stock solutions of peptides (100 μM) were diluted by a factor of 10 with pre-warmed 100% human serum (Sigma-Aldrich, St. Louis, MO, USA) and incubated at 37 °C for 0, 3, 6, 9, and 24 h. Controls with peptides in PBS were included. The action was stopped by denaturing the serum proteins with urea at a final concentration of 3 M at 4 °C for 10 min, followed by precipitation of serum proteins with trichloroacetic acid at a final concentration of 7% (v/v) (4 °C, 10 min) and centrifugation (17,000 × g, 10 min). The supernatant of each sample was recovered and run on an analytical column using a linear gradient of 5-65% solvent B for 30 min at a flow rate of 1 ml/min, where solvent A was water containing 0.1% TFA and solvent B was acetonitrile containing 0.1% TFA. The percentage of peptide remaining in serum-treated samples was determined by comparing the height of the peptide peak obtained at each time point with that of the peptide peak obtained at the 0 time point. […]
as §3
Plasma peptide concentrations were quantified by ELISA, and pharmacokinetic profiles were analyzed using Phoenix WinNonlin 8.1 (Pharsight Corporation, Mountain View, CA, USA). […]

| Compound | binding to normal cells (MFI) [1] | binding to cancer cells (MFI relative to untreated cells) [2] | cellular uptake / internalization [3] | Cmax [4] [ng/mL] | Tmax [4] [min] | degradation after incubation with serum [5] |
| --- | --- | --- | --- | --- | --- | --- |
| AGM-330-FITC (RHGAMVYLK; PEG12 after the C-terminal Lys of each RHGAMVYLK arm, joined to a trilysine core; FITC (by FITC-5-maleimide)) | significant decrease in binding to normal cells | significant cancer cell binding | not taken up by the cytoplasm or nucleolus | – | – | – |
| CSCC[C@H](NC(=O)[C@H](C)NC(=O)CNC(=O)[C@H](Cc1c[nH]cn1)NC(=O)[C@@H](N)CCCNC(=N)N)C(=O)N[C@H](C(=O)N[C@@H](Cc1ccc(O)cc1)C(=O)N[C@@H](CC(C)C)C(=O)N[C@@H](CCCCN)C(=O)O)C(C)C [AGM-330m] | – | – | – | 1270 ± 120 | 10 | rapidly degraded |
